In the assay the target is T1, human GnRH receptor (Homo sapiens, UniProt P30968).
T1 sequence (P30968 1-328): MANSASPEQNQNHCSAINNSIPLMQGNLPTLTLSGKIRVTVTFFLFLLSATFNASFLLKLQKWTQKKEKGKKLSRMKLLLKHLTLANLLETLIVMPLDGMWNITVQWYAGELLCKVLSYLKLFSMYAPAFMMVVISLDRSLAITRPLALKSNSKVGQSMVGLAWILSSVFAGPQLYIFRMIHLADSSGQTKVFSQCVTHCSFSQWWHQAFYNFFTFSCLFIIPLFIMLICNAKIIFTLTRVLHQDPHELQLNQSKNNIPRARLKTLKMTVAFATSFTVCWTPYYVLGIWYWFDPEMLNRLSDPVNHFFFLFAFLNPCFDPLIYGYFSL
The experiment in a line: IP-One HTRF assay with buserelin (at EC80) stimulation. The assay is classed as cell-based. The following applies: CHO cells stably expressing human GnRH receptor, read-out: Potency in IP-One HTRF assay, given as IC50. The procedure, abridged:
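CHO cells stably expressing human GnRH receptor, preincubated 1 h at 37° C with IP1-d2, were exposed to compound and buserelin at EC80 for 1 h at 37° C. After lysis with Tb-anti-IP1 antibody (1 h, 22° C), 665/620 nm HTRF ratio read; 10 concentrations, 20 μM–1 nM, duplicates, 4-parameter IC50.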
On the technique in general: In TR-FRET formats the signal depends on donor and acceptor labels being close together.
On to `O=C(Nc1ccon1)c1ccc2c(c1)C1(CCS(=O)(=O)CC1)C(C1CC1)N2S(=O)(=O)c1ccc(F)cc1` (single isomer, unassigned) [Example 63.2, 2-cyclopropyl-1-[(4-fluorophenyl)sulfonyl]-N-(1,2-oxazol-3-yl)-1,2,2′,3′,5′,6′-hexahydrospiro[indole-3,4′-thiopyran]-5-carboxamide 1′,1′-dioxide], for which the IC50 (in general, the concentration at which inhibition is half-maximal) was found to be 3430 nM.
Next, `CN(C)C(=NS(=O)(=O)c1cccc(NC(=O)c2ccc3c(c2)C2(CCS(=O)(=O)CC2)C(C2CC2)N3S(=O)(=O)c2ccc(F)cc2)c1)N(C)C` (single isomer, unassigned) [Example 64.1, N-(3-{[bis(dimethylamino)methylidene]sulfamoyl}phenyl)-2-cyclopropyl-1-[(4-fluorophenyl)sulfonyl]-1,2,2′,3′,5′,6′-hexahydrospiro[indole-3,4′-thiopyran]-5-carboxamide 1′,1′-dioxide]: 4.6 nM.
Take `CN(C)C(=NS(=O)(=O)c1cccc(NC(=O)c2ccc3c(c2)C2(CCS(=O)(=O)CC2)C(C2CC2)N3S(=O)(=O)c2ccc(F)cc2)c1)N(C)C` (single isomer, unassigned) [Example 64.2, N-(3-{[bis(dimethylamino)methylidene]sulfamoyl}phenyl)-2-cyclopropyl-1-[(4-fluorophenyl)sulfonyl]-1,2,2′,3′,5′,6′-hexahydrospiro[indole-3,4′-thiopyran]-5-carboxamide 1′,1′-dioxide]: the IC50 came out at 66 nM.
For the molecule `O=C(NCc1ccccc1C(F)F)c1ccc2c(c1)C1(CCS(=O)(=O)CC1)C(C1CC1)N2S(=O)(=O)c1ccc(F)cc1` (single isomer, unassigned) [Example 68.2, 2-cyclopropyl-N-[2-(difluoromethyl)benzyl]-1-[(4-fluorophenyl)sulfonyl]-1,2,2′,3′,5′,6′-hexahydrospiro[indole-3,4′-thiopyran]-5-carboxamide 1′,1′-dioxide], the IC50 amounted to 143 nM.
Regarding `N#Cc1ccc(S(=O)(=O)N2c3ccc(C(=O)NCc4ncccc4Cl)cc3C3(CCS(=O)(=O)CC3)C2C2CC2)cc1` (single isomer, unassigned) [Example 70.1, N-[(3-chloropyridin-2-yl)methyl]-1-[(4-cyanophenyl)sulfonyl]-2-cyclopropyl-1,2,2′,3′,5′,6′-hexahydrospiro[indole-3,4′-thiopyran]-5-carboxamide 1′,1′-dioxide], the IC50 came to 33 nM.
With `N#Cc1ccc(S(=O)(=O)N2c3ccc(C(=O)NCc4ncccc4Cl)cc3C3(CCS(=O)(=O)CC3)C2C2CC2)cc1` (single isomer, unassigned) [Example 70.2, N-[(3-chloropyridin-2-yl)methyl]-1-[(4-cyanophenyl)sulfonyl]-2-cyclopropyl-1,2,2′,3′,5′,6′-hexahydrospiro[indole-3,4′-thiopyran]-5-carboxamide 1′,1′-dioxide], the IC50 was 202 nM.
For the molecule `N#Cc1ccc(S(=O)(=O)N2c3ccc(C(=O)Nc4cncc(Cl)c4)cc3C3(CCS(=O)(=O)CC3)C2C2CC2)cc1` (single isomer, unassigned) [Example 71.1, N-(5-chloropyridin-3-yl)-1-[(4-cyanophenyl)sulfonyl]-2-cyclopropyl-1,2,2′,3′,5′,6′-hexahydrospiro[indole-3,4′-thiopyran]-5-carboxamide 1′,1′-dioxide], the IC50 was determined as 49 nM.
With `N#Cc1ccc(S(=O)(=O)N2c3ccc(C(=O)Nc4cncc(Cl)c4)cc3C3(CCS(=O)(=O)CC3)C2C2CC2)cc1` (single isomer, unassigned) [Example 71.2, N-(5-chloropyridin-3-yl)-1-[(4-cyanophenyl)sulfonyl]-2-cyclopropyl-1,2,2′,3′,5′,6′-hexahydrospiro[indole-3,4′-thiopyran]-5-carboxamide 1′,1′-dioxide], the IC50 stood at 1630 nM.
The same measure for `N#Cc1ccc(S(=O)(=O)N2c3ccc(C(=O)NCc4ccccc4C(F)(F)F)cc3C3(CCS(=O)(=O)CC3)C2C2CC2)cc1` (single isomer, unassigned) [Example 72.1, 1-[(4-cyanophenyl)sulfonyl]-2-cyclopropyl-N-[2-(trifluoromethyl)benzyl]-1,2,2′,3′,5′,6′-hexahydrospiro[indole-3,4′-thiopyran]-5-carboxamide 1′,1′-dioxide]: 11 nM; for `N#Cc1ccc(S(=O)(=O)N2c3ccc(C(=O)NCc4ccccc4C(F)(F)F)cc3C3(CCS(=O)(=O)CC3)C2C2CC2)cc1` (single isomer, unassigned) [Example 72.2, 1-[(4-cyanophenyl)sulfonyl]-2-cyclopropyl-N-[2-(trifluoromethyl)benzyl]-1,2,2′,3′,5′,6′-hexahydrospiro[indole-3,4′-thiopyran]-5-carboxamide 1′,1′-dioxide]: 403 nM; for `N#Cc1cccc(S(=O)(=O)N2c3ccc(C(=O)NCc4ccccc4Cl)cc3C3(CCS(=O)(=O)CC3)C2C2CC2)c1` (single isomer, unassigned) [Example 76.1, N-(2-chlorobenzyl)-1-[(3-cyanophenyl)sulfonyl]-2-cyclopropyl-1,2,2′,3′,5′,6′-hexahydrospiro[indole-3,4′-thiopyran]-5-carboxamide 1′,1′-dioxide]: 21 nM.
In the case of `N#Cc1cccc(S(=O)(=O)N2c3ccc(C(=O)NCc4ccccc4Cl)cc3C3(CCS(=O)(=O)CC3)C2C2CC2)c1` (single isomer, unassigned) [Example 76.2, N-(2-chlorobenzyl)-1-[(3-cyanophenyl)sulfonyl]-2-cyclopropyl-1,2,2′,3′,5′,6′-hexahydrospiro[indole-3,4′-thiopyran]-5-carboxamide 1′,1′-dioxide], the IC50 came out at 689 nM.
On to `N#Cc1cccc(S(=O)(=O)N2c3ccc(C(=O)Nc4cncc(Cl)c4)cc3C3(CCS(=O)(=O)CC3)C2C2CC2)c1` (single isomer, unassigned) [Example 77.1, N-(5-chloropyridin-3-yl)-1-[(3-cyanophenyl)sulfonyl]-2-cyclopropyl-1,2,2′,3′,5′,6′-hexahydrospiro[indole-3,4′-thiopyran]-5-carboxamide 1′,1′-dioxide], for which the IC50 worked out at 54 nM.
Turning to `N#Cc1cccc(S(=O)(=O)N2c3ccc(C(=O)Nc4cncc(Cl)c4)cc3C3(CCS(=O)(=O)CC3)C2C2CC2)c1` (single isomer, unassigned) [Example 77.2, N-(5-chloropyridin-3-yl)-1-[(3-cyanophenyl)sulfonyl]-2-cyclopropyl-1,2,2′,3′,5′,6′-hexahydrospiro[indole-3,4′-thiopyran]-5-carboxamide 1′,1′-dioxide], the IC50 is 963 nM.
With `N#Cc1cccc(S(=O)(=O)N2c3ccc(C(=O)NCc4ncccc4C(F)(F)F)cc3C3(CCS(=O)(=O)CC3)C2C2CC2)c1` (single isomer, unassigned) [Example 79.1, 1-[(3-cyanophenyl)sulfonyl]-2-cyclopropyl-N-{[3-(trifluoromethyl)pyridin-2-yl]methyl}-1,2,2′,3′,5′,6′-hexahydrospiro[indole-3,4′-thiopyran]-5-carboxamide 1′,1′-dioxide], the IC50 came to 54 nM.
With `N#Cc1cccc(S(=O)(=O)N2c3ccc(C(=O)NCc4ncccc4C(F)(F)F)cc3C3(CCS(=O)(=O)CC3)C2C2CC2)c1` (single isomer, unassigned) [Example 79.2, 1-[(3-cyanophenyl)sulfonyl]-2-cyclopropyl-N-{[3-(trifluoromethyl)pyridin-2-yl]methyl}-1,2,2′,3′,5′,6′-hexahydrospiro[indole-3,4′-thiopyran]-5-carboxamide 1′,1′-dioxide], the IC50 came out at 1020 nM.
As to `N#Cc1cccc(S(=O)(=O)N2c3ccc(C(=O)Nc4ccon4)cc3C3(CCS(=O)(=O)CC3)C2C2CC2)c1` (single isomer, unassigned) [Example 80.1, 1-[(3-cyanophenyl)sulfonyl]-2-cyclopropyl-N-(1,2-oxazol-3-yl)-1,2,2′,3′,5′,6′-hexahydrospiro[indole-3,4′-thiopyran]-5-carboxamide 1′,1′-dioxide], the IC50 amounted to 315 nM.
Next, `N#Cc1cccc(S(=O)(=O)N2c3ccc(C(=O)Nc4ccon4)cc3C3(CCS(=O)(=O)CC3)C2C2CC2)c1` (single isomer, unassigned) [Example 80.2, 1-[(3-cyanophenyl)sulfonyl]-2-cyclopropyl-N-(1,2-oxazol-3-yl)-1,2,2′,3′,5′,6′-hexahydrospiro[indole-3,4′-thiopyran]-5-carboxamide 1′,1′-dioxide]: greater than 20000 nM; `COC(=O)c1cccc(NC(=O)c2ccc3c(c2)C2(CCS(=O)(=O)CC2)C(C2CC2)N3S(=O)(=O)c2cccc(OC(F)F)c2)c1` (single isomer, unassigned) [Example 89.1, methyl 3-{[(2-cyclopropyl-1-{[3-(difluoromethoxy)phenyl]sulfonyl}-1′,1′-dioxido-1,2,2′,3′,5′,6′-hexahydrospiro[indole-3,4′-thiopyran]-5-yl)carbonyl]amino}benzoate]: 63 nM.
Regarding `COC(=O)c1cccc(NC(=O)c2ccc3c(c2)C2(CCS(=O)(=O)CC2)C(C2CC2)N3S(=O)(=O)c2cccc(OC(F)F)c2)c1` (single isomer, unassigned) [Example 89.2, methyl 3-{[(2-cyclopropyl-1-{[3-(difluoromethoxy)phenyl]sulfonyl}-1′,1′-dioxido-1,2,2′,3′,5′,6′-hexahydrospiro[indole-3,4′-thiopyran]-5-yl)carbonyl]amino}benzoate], the IC50 is greater than 20000 nM.

The values are drawn from US20140357655A1, “SPIROINDOLINE DERIVATIVES AS GONADOTROPIN- RELEASING HORMONE RECEPTOR ANTAGONISTS” (Bayer Intellectual Property GmbH, priority 2012, published 2014).
